SMILES strings stand for the structures.

One may read the IC50 as the concentration needed to halve the response being measured.

In this assay the target is human ALK5 (Homo sapiens (Human), UniProt P36897). The assay is described as follows: ADP-GLO Kinases assay, inhibition of ALK5 enzymatic activity. Format: biochemical. As to conditions: Table 4; potency bins; purified recombinant human ALK5, ADP-Glo, 25° C.; read-out: ALK5 IC50. As for the experimental part:
The enzymatic activity of compounds of the present invention was monitored measuring the formation of ADP using the ADP-GLO Kinases assay. Following the incubation of the purified enzyme, a substrate and ATP, the produced ADP was converted into ATP, which in turn was converted into light by Ultra-Glo Luciferase. The luminescent signal positively correlated with ADP amount and kinase activity. Briefly, the kinase reaction was performed by incubating 2.6 nM of the purified, commercially available human ALK5 (recombinant TGF β1 N-term GST-tagged, 80-end), a final concentration of TGFβ1 peptide 94.5 μM (Promega, T36-58) and ultra-pure ATP (Promega V915B). […] All reactions/incubations were performed at 25° C. Compound and ALK5 kinase were mixed and incubated for 15 mins. Reactions were initiated by addition of ATP at a final concentration in the assay of 0.83 μM. After an incubation of 150 min, the reaction was stopped, and ADP production detected with ADP-Glo kit according to manufacturer's indications. The assay was performed in 384-well format and was validated using a selection of reference compounds that was tested in 11 point concentration-response curve.
(In general: In ADP-Glo the light output rises with the ADP produced.)

human ALK5, sequence (P36897 80-503 limits assumed): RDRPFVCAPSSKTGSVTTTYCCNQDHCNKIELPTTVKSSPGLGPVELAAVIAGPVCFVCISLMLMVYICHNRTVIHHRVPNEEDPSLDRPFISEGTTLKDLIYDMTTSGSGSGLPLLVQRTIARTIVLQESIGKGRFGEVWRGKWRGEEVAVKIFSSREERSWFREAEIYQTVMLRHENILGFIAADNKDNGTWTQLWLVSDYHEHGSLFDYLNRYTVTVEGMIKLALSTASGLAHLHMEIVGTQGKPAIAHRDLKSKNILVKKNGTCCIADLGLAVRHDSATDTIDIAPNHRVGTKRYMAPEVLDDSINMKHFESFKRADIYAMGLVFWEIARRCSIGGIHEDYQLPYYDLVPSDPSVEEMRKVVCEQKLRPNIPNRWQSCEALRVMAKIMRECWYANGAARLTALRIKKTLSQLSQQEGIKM

`CC(C)c1ccc(F)c(-c2cc3c(cn2)OCCN3c2ccnc(N)c2)c1` [Example 13, 4-{7-[2-fluoro-5-(propan-2-yl)phenyl]-1H,2H,3H-pyrido[3,4-b][1,4]oxazin-1-yl}pyridin-2-amine]: the IC50 was in the range of 1 to 5 nM.

With `CN1CCN(CCNC(=O)Nc2cc(N3CCOc4cnc(-c5cc(Cl)ccc5F)cc43)ccn2)CC1` [Example 55, 1-(4-(7-(5-chloro-2-fluorophenyl)-2,3-dihydro-1H-pyrido[3,4-b][1,4]oxazin-1-yl)pyridin-2-yl)-3-(2-(4-methylpiperazin-1-yl)ethyl)urea], the IC50 is less than 1 nM. The result for `Cc1ccc(F)c(-c2cc3c(cn2)OCCN3c2ccnc(N)c2)c1` [Example 11, 4-[7-(2-fluoro-5-methylphenyl)-1H,2H,3H-pyrido[3,4-b][1,4]oxazin-1-yl]pyridin-2-amine] reads 5 to 10 nM; that for `COC(=O)C1CN(C)CCN1CCC(=O)Nc1cc(N2CCOc3cnc(-c4cc(Cl)ccc4F)cc32)ccn1` (centres unmarked) [Example 49, Methyl 1-[2-({4-[7-(5-chloro-2-fluorophenyl)-1H,2H,3H-pyrido[3,4-b][1,4]oxazin-1-yl]pyridin-2-yl}carbamoyl)ethyl]-4-methylpiperazine-2-carboxylate], less than 1 nM. On to `Nc1nc(-c2cc(Cl)ccc2F)cc2c1OCCN2c1ccncc1` [Example 2, 7-(5-chloro-2-fluorophenyl)-1-(pyridin-4-yl)-1H,2H,3H-pyrido[3,4-b][1,4]oxazin-5-amine], for which the IC50 lay within 5 to 10 nM.

Regarding `COCCC(=O)Nc1cc(N2CCOc3cnc(-c4cc(Cl)ccc4F)cc32)ccn1` [Example 40, N-{4-[7-(5-chloro-2-fluorophenyl)-1H,2H,3H-pyrido[3,4-b][1,4]oxazin-1-yl]pyridin-2-yl}-3-methoxypropanamide], the IC50 was in the range of 5 to 10 nM. Take `CC(C)c1ccc(F)c(-c2cc3c(cn2)OCCN3c2ccnc(NC(=O)CCN3CCN(C)CC3)c2)c1` [Example 34, N-(4-{7-[2-fluoro-5-(propan-2-yl)phenyl]-1H,2H,3H-pyrido[3,4-b][1,4]oxazin-1-yl}pyridin-2-yl)-3-(4-methylpiperazin-1-yl)propanamide]: the IC50 is less than 1 nM. To `COC(=O)CC1CN(C)CCN1CCC(=O)Nc1cc(N2CCOc3cnc(-c4cc(Cl)ccc4F)cc32)ccn1` (centres unmarked) [Example 50, Methyl 2-{1-[2-({4-[7-(5-chloro-2-fluorophenyl)-1H,2H,3H-pyrido[3,4-b][1,4]oxazin-1-yl]pyridin-2-yl}carbamoyl)ethyl]-4-methylpiperazin-2-yl}acetate] belongs less than 1 nM; to `CN1CCN(CCC(=O)Nc2cc(N3CCOc4cnc(-c5cc(Cl)ccc5F)cc43)ccn2)CC1=O` [Example 22, N-{4-[7-(5-chloro-2-fluorophenyl)-1H,2H,3H-pyrido[3,4-b][1,4]oxazin-1-yl]pyridin-2-yl}-3-(4-methyl-3-oxopiperazin-1-yl)propanamide], less than 1 nM.

`O=C(CCN1CCNCC1)Nc1cc(N2CCOc3cnc(-c4cc(Cl)ccc4F)cc32)ccn1` [Example 10, N-{4-[7-(5-chloro-2-fluorophenyl)-1H,2H,3H-pyrido[3,4-b][1,4]oxazin-1-yl]pyridin-2-yl}-3-(piperazin-1-yl)propanamide]: the IC50 is less than 1 nM. The result for `Nc1cc(N2CCOc3cnc(-c4cc(Cl)ccc4F)cc32)ccn1` [Example 3, 4-[7-(5-chloro-2-fluorophenyl)-1H,2H,3H-pyrido[3,4-b][1,4]oxazin-1-yl]pyridin-2-amine] reads 1 to 5 nM; that for `Nc1cc(N2CCOc3cnc(-c4cc(F)ccc4F)cc32)ccn1` [Example 4, 4-[7-(2,5-difluorophenyl)-1H,2H,3H-pyrido[3,4-b][1,4]oxazin-1-yl]pyridin-2-amine], 5 to 10 nM; that for `Fc1ccc(Cl)cc1-c1cc2c(cn1)OCCN2c1ccncc1` [Example 1, 4-[7-(5-chloro-2-fluorophenyl)-1H,2H,3H-pyrido[3,4-b][1,4]oxazin-1-yl]pyridine], 5 to 10 nM.

For `CN(C)CCC(=O)Nc1cc(N2CCOc3cnc(-c4cc(Cl)ccc4F)cc32)ccn1` [Example 9, N-{4-[7-(5-chloro-2-fluorophenyl)-1H,2H,3H-pyrido[3,4-b][1,4]oxazin-1-yl]pyridin-2-yl}-3-(dimethylamino)propanamide], the IC50 is less than 1 nM. To `CN1CCC(CCC(=O)Nc2cc(N3CCOc4cnc(-c5cc(Cl)ccc5F)cc43)ccn2)CC1` [Example 32, N-{4-[7-(5-chloro-2-fluorophenyl)-1H,2H,3H-pyrido[3,4-b][1,4]oxazin-1-yl]pyridin-2-yl}-3-(1-methylpiperidin-4-yl)propanamide] belongs less than 1 nM. To `CN1CCN(CCC(=O)Nc2cc(N3CCOc4c3cc(-c3cc(Cl)ccc3F)nc4C(=O)O)ccn2)CC1` [Example 44, 7-(5-chloro-2-fluorophenyl)-1-{2-[3-(4-methylpiperazin-1-yl)propanamido]pyridin-4-yl}-1H,2H,3H-pyrido[3,4-b][1,4]oxazine-5-carboxylic acid] belongs 1 to 5 nM. To `CN1CCC(CCC(=O)Nc2cc(N3CCOc4cnc(-c5nc(Cl)ccc5F)cc43)ccn2)CC1` [Example 39, N-{4-[7-(6-chloro-3-fluoropyridin-2-yl)-1H,2H,3H-pyrido[3,4-b][1,4]oxazin-1-yl]pyridin-2-yl}-3-(1-methylpiperidin-4-yl)propanamide] belongs less than 1 nM; to `NC(=O)CCN1CCN(CCC(=O)Nc2cc(N3CCOc4cnc(-c5cc(Cl)ccc5F)cc43)ccn2)CC1` [Example 37, 3-[4-(2-carbamoylethyl)piperazin-1-yl]-N-{4-[7-(5-chloro-2-fluorophenyl)-1H,2H,3H-pyrido[3,4-b][1,4]oxazin-1-yl]pyridin-2-yl}propanamide], less than 1 nM; to `CN(CCO)CCC(=O)Nc1cc(N2CCOc3cnc(-c4cc(Cl)ccc4F)cc32)ccn1` [Example 20, N-{4-[7-(5-chloro-2-fluorophenyl)-1H,2H,3H-pyrido[3,4-b][1,4]oxazin-1-yl]pyridin-2-yl}-3-[(2-hydroxyethyl)(methyl)amino] propanamide], less than 1 nM. As to `CN(CCC(=O)Nc1cc(N2CCOc3cnc(-c4cc(Cl)ccc4F)cc32)ccn1)CCS(C)(=O)=O` [Example 27, N-{4-[7-(5-chloro-2-fluorophenyl)-1H,2H,3H-pyrido[3,4-b][1,4]oxazin-1-yl]pyridin-2-yl}-3-[(2-methanesulfonylethyl)(methyl)amino]propanamide], the IC50 was in the range of 1 to 5 nM. To `CN(CCNS(C)(=O)=O)CCC(=O)Nc1cc(N2CCOc3cnc(-c4cc(Cl)ccc4F)cc32)ccn1` [Example 29, N-{4-[7-(5-chloro-2-fluorophenyl)-1H,2H,3H-pyrido[3,4-b][1,4]oxazin-1-yl]pyridin-2-yl}-3-[(2-methanesulfonamidoethyl)(methyl)amino]propanamide] belongs less than 1 nM. The result for `CN1CCN(CCC(=O)Nc2cc(N3CCOc4c3cc(-c3cc(Cl)ccc3F)nc4C(F)(F)F)ccn2)CC1` [Example 56] reads 5 to 10 nM. In the case of `CN1CCN(CCC(=O)Nc2cc(N3CCOc4cnc(-c5nc(Cl)ccc5F)cc43)ccn2)CC1` [Example 38, N-{4-[7-(6-chloro-3-fluoropyridin-2-yl)-1H,2H,3H-pyrido[3,4-b][1,4]oxazin-1-yl]pyridin-2-yl}-3-(4-methylpiperazin-1-yl)propanamide], the IC50 is less than 1 nM. The result for `Nc1cc(N2CCOc3cnc(-c4cc(C5CC5)ccc4F)cc32)ccn1` [Example 12, 4-[7-(5-cyclopropyl-2-fluorophenyl)-1H,2H,3H-pyrido[3,4-b][1,4]oxazin-1-yl]pyridin-2-amine] reads 1 to 5 nM; that for `COC(=O)CN(C)CCC(=O)Nc1cc(N2CCOc3cnc(-c4cc(Cl)ccc4F)cc32)ccn1` [Example 23, methyl 2-{[2-({4-[7-(5-chloro-2-fluorophenyl)-1H,2H,3H-pyrido[3,4-b][1,4]oxazin-1-yl]pyridin-2-yl}carbamoyl)ethyl](methyl)amino} acetate], less than 1 nM; that for `CS(=O)(=O)NCCC(=O)Nc1cc(N2CCOc3cnc(-c4cc(Cl)ccc4F)cc32)ccn1` [Example 24, N-{4-[7-(5-chloro-2-fluorophenyl)-1H,2H,3H-pyrido[3,4-b][1,4]oxazin-1-yl]pyridin-2-yl}-3-methanesulfonamidopropanamide], less than 1 nM. The result for `COC(=O)CC1CN(CCC(=O)Nc2cc(N3CCOc4cnc(-c5cc(Cl)ccc5F)cc43)ccn2)CCN1C` (centres unmarked) [Example 47, Methyl 2-{4-[2-({4-[7-(5-chloro-2-fluorophenyl)-1H,2H,3H-pyrido[3,4-b][1,4]oxazin-1-yl]pyridin-2-yl}carbamoyl)ethyl]-1-methylpiperazin-2-yl}acetate] reads less than 1 nM; that for `O=C(CCN1CCN(CCC(=O)Nc2cc(N3CCOc4cnc(-c5cc(Cl)ccc5F)cc43)ccn2)CC1)NCCO` [Example 35, 3-{4-[2-({4-[7-(5-chloro-2-fluorophenyl)-1H,2H,3H-pyrido[3,4-b][1,4]oxazin-1-yl]pyridin-2-yl}carbamoyl)ethyl]piperazin-1-yl}-N-(2-hydroxyethyl)propanamide], less than 1 nM; that for `O=C(CCN(CCO)CCO)Nc1cc(N2CCOc3cnc(-c4cc(Cl)ccc4F)cc32)ccn1` [Example 18, 3-[bis(2-hydroxyethyl)amino]-N-{4-[7-(5-chloro-2-fluorophenyl)-1H,2H,3H-pyrido[3,4-b][1,4]oxazin-1-yl]pyridin-2-yl}propanamide], less than 1 nM.
